ChEMBL document CHEMBL5465560, “Selectivity Literature for EUbOPEN Chemogenomic Library” (2024)

Assays:
[1] = biological target: Cyclin-dependent kinase 2 (Homo sapiens, UniProt P24941); assay: Selectivity interaction (Kinase panel (Invitrogen, enzymatic assay)) EUB0000623aCl CDK2
[2] = biological target: Epidermal growth factor receptor (Homo sapiens, UniProt P00533); assay: Selectivity interaction (Kinase panel (Invitrogen, enzymatic assay)) EUB0000623aCl EGFR
[3] = biological target: Ephrin type-A receptor 3 (Homo sapiens, UniProt P29320); assay: Selectivity interaction (Kinase panel (Invitrogen, enzymatic assay)) EUB0000623aCl EPHA3
[4] = biological target: Receptor tyrosine-protein kinase erbB-4 (Homo sapiens, UniProt Q15303); assay: Selectivity interaction (Kinase panel (Invitrogen, enzymatic assay)) EUB0000623aCl ERBB4
[5] = biological target: Glycogen synthase kinase-3 beta (Homo sapiens, UniProt P49841); assay: Selectivity interaction (Kinase panel (Invitrogen, enzymatic assay)) EUB0000623aCl GSK3B
[6] = biological target: Inhibitor of nuclear factor kappa-B kinase subunit beta (Homo sapiens, UniProt O14920); assay: Selectivity interaction (Kinase panel (Invitrogen, enzymatic assay)) EUB0000623aCl IKBKB
[7] = biological target: Mitogen-activated protein kinase kinase kinase 1 (Homo sapiens, UniProt Q13233); assay: Selectivity interaction (Kinase panel (Invitrogen, enzymatic assay)) EUB0000623aCl MAP3K1
[8] = biological target: Mitogen-activated protein kinase kinase kinase 7 (Homo sapiens, UniProt O43318); assay: Selectivity interaction (Kinase panel (Invitrogen, enzymatic assay)) EUB0000623aCl MAP3K7
[9] = biological target: T1, Mitogen-activated protein kinase 14 (Homo sapiens, UniProt Q16539); assay: (§1) Selectivity interaction (Kinase panel (Invitrogen, enzymatic assay)) EUB0000623aCl MAPK14
[10] = biological target: T1, Mitogen-activated protein kinase 14; assay: as §1; remark: listed apart in the source
[11] = biological target: Mitogen-activated protein kinase 3 (Homo sapiens, UniProt P27361); assay: Selectivity interaction (Kinase panel (Invitrogen, enzymatic assay)) EUB0000623aCl MAPK3
[12] = biological target: Mitogen-activated protein kinase 8 (Homo sapiens, UniProt P45983); assay: Selectivity interaction (Kinase panel (Invitrogen, enzymatic assay)) EUB0000623aCl MAPK8
[13] = biological target: Protein kinase C theta type (Homo sapiens, UniProt Q04759); assay: Selectivity interaction (Kinase panel (Invitrogen, enzymatic assay)) EUB0000623aCl PRKCQ
[14] = biological target: Macrophage-stimulating protein receptor (Homo sapiens, UniProt Q04912); assay: Selectivity interaction (Kinase panel (Invitrogen, enzymatic assay)) EUB0000623aCl MST1R
[15] = biological target: Voltage-dependent L-type calcium channel subunit alpha-1C (Homo sapiens, UniProt Q13936); assay: Selectivity interaction (CEREP selectivity screen) EUB0000318b CACNA1C; details: at 10 µM
[16] = biological target: T2, 4-aminobutyrate aminotransferase, mitochondrial (Homo sapiens, UniProt P80404); assay: (§2) Selectivity interaction (GPCR panel (PDSP screen)) EUB0000318b ABAT
[17] = biological target: T2, 4-aminobutyrate aminotransferase, mitochondrial; assay: as §2; details: at 10 µM
[18] = biological target: 5-hydroxytryptamine receptor 2A (Homo sapiens, UniProt P28223); assay: Selectivity interaction (CEREP selectivity screen) EUB0000318b HTR2A; details: at 10 µM
[19] = biological target: T3, Mitogen-activated protein kinase kinase kinase 5 (Homo sapiens) (UniProt Q99683); assay: Selectivity interaction (KinomeScan (DiscoverX)) EUB0000318b MAP3K5; details: at 1 µM
T3 sequence (whole entry): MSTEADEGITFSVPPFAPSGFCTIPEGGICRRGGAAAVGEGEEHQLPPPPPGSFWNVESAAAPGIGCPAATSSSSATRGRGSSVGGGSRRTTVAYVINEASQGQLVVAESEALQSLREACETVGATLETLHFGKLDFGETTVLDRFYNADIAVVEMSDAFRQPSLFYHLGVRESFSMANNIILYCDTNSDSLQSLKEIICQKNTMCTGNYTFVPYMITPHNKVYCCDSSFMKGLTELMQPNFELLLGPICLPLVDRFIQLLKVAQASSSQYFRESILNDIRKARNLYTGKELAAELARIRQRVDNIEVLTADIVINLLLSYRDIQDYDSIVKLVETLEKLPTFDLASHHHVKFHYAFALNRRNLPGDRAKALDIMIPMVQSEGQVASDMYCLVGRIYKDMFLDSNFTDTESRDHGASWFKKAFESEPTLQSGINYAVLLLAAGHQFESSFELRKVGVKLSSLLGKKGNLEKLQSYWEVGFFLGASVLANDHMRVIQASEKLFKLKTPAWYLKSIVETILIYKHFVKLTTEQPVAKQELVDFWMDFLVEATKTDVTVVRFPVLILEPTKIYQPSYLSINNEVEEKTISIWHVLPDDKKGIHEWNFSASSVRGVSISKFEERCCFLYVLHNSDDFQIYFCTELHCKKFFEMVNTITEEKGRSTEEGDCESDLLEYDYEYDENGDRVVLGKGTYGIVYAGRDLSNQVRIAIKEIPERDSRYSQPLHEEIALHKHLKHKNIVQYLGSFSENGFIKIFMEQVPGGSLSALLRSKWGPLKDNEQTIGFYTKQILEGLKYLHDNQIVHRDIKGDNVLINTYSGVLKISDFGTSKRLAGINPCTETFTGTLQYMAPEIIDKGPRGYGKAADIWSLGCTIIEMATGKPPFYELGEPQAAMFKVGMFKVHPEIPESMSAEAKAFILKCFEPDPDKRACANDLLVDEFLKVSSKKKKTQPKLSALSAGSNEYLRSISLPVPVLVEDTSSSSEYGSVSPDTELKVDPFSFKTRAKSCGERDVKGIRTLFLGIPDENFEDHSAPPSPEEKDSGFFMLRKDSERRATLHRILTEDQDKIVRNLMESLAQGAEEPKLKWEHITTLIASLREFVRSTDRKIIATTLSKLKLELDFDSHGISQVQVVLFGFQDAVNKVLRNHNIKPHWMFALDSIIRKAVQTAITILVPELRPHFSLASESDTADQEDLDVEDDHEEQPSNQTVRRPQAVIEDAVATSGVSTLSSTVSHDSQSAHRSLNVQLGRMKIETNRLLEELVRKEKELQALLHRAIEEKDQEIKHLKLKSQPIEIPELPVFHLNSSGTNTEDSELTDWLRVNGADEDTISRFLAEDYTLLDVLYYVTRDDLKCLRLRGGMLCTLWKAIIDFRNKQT

[20] = biological target: T4, Serine/threonine-protein kinase Nek1 (Homo sapiens) (UniProt Q96PY6); assay: Selectivity interaction (KinomeScan (DiscoverX)) EUB0000318b NEK1; details: at 1 µM
T4 sequence (whole entry): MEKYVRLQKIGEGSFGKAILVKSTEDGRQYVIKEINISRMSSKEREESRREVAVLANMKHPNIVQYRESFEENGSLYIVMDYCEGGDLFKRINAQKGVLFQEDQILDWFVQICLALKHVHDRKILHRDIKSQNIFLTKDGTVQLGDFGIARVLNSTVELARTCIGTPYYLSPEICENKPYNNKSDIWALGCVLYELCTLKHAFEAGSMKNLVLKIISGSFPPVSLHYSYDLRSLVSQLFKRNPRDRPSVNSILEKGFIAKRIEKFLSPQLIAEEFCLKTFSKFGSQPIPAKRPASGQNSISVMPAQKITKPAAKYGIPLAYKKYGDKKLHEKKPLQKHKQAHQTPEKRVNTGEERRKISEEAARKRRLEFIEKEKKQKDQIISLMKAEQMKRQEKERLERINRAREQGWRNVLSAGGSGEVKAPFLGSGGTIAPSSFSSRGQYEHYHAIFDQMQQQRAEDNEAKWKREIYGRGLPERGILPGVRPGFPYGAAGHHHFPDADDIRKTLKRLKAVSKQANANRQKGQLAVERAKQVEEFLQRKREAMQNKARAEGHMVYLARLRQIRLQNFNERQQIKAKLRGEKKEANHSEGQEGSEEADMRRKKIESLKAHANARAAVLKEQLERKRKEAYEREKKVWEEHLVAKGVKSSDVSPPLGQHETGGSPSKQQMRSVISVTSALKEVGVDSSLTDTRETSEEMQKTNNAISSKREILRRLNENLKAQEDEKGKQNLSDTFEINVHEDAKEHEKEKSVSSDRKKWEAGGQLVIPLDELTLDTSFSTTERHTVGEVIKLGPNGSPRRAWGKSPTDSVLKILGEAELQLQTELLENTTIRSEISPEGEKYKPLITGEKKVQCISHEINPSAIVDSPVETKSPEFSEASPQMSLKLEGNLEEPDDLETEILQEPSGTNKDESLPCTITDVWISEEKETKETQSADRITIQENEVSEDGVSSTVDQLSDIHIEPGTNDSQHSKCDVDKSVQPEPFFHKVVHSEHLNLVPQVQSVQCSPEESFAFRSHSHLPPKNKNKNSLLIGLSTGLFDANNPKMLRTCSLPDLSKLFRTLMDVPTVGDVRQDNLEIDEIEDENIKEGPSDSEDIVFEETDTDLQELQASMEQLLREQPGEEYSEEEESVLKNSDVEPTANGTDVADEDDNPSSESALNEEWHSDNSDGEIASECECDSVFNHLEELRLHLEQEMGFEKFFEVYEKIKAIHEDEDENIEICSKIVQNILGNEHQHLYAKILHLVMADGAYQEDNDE

[21] = biological target: Sodium channel regulatory subunit beta-1 (Homo sapiens) (UniProt Q07699); assay: Selectivity interaction (CEREP selectivity screen) EUB0000318b SCN1B; details: at 10 µM
[22] = biological target: Sigma non-opioid intracellular receptor 1 (Homo sapiens) (UniProt Q99720); assay: Selectivity interaction (GPCR panel (PDSP screen)) EUB0000318b SIGMAR1; details: at 10 µM
[23] = biological target: Sodium-dependent noradrenaline transporter (Homo sapiens, UniProt P23975); assay: Selectivity interaction (CEREP selectivity screen) EUB0000318b SLC6A2; details: at 10 µM

T1 sequence (Q16539 whole entry): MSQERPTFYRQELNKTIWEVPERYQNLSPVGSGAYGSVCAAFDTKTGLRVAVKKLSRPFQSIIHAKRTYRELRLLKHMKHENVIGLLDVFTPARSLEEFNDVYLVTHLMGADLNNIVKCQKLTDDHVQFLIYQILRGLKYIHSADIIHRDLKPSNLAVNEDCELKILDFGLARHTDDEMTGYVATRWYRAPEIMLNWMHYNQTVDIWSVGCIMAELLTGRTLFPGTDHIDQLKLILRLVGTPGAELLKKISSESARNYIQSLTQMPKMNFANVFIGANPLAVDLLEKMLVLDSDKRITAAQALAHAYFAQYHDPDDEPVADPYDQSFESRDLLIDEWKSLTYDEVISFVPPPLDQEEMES
T2 sequence (P80404 whole entry): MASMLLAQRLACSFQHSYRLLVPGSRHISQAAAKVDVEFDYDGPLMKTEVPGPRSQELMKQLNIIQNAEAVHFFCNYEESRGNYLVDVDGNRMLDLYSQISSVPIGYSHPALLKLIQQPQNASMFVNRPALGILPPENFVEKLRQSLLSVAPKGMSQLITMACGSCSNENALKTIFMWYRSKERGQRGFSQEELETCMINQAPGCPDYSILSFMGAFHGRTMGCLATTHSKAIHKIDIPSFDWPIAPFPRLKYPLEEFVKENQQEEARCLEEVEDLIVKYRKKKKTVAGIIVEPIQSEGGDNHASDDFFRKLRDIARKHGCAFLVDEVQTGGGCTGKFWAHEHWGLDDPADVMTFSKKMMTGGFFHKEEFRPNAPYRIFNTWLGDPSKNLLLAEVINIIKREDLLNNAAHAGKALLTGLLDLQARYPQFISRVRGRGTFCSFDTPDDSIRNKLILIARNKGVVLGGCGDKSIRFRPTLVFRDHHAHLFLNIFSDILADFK
Chain of Mitogen-activated protein kinase 8 (P45983 whole entry): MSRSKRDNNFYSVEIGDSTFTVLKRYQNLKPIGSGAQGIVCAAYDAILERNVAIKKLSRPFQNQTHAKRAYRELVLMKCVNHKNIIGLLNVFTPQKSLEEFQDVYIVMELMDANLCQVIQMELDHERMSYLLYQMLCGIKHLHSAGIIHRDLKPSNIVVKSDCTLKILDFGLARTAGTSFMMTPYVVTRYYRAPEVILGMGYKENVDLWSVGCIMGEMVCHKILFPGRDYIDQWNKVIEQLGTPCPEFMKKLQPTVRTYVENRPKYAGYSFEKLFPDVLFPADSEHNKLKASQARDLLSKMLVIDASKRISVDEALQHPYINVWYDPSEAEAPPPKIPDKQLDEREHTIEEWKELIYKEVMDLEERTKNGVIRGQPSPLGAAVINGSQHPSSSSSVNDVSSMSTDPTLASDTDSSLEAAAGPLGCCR
Chain of Voltage-dependent L-type calcium channel subunit alpha-1C (Q13936 whole entry): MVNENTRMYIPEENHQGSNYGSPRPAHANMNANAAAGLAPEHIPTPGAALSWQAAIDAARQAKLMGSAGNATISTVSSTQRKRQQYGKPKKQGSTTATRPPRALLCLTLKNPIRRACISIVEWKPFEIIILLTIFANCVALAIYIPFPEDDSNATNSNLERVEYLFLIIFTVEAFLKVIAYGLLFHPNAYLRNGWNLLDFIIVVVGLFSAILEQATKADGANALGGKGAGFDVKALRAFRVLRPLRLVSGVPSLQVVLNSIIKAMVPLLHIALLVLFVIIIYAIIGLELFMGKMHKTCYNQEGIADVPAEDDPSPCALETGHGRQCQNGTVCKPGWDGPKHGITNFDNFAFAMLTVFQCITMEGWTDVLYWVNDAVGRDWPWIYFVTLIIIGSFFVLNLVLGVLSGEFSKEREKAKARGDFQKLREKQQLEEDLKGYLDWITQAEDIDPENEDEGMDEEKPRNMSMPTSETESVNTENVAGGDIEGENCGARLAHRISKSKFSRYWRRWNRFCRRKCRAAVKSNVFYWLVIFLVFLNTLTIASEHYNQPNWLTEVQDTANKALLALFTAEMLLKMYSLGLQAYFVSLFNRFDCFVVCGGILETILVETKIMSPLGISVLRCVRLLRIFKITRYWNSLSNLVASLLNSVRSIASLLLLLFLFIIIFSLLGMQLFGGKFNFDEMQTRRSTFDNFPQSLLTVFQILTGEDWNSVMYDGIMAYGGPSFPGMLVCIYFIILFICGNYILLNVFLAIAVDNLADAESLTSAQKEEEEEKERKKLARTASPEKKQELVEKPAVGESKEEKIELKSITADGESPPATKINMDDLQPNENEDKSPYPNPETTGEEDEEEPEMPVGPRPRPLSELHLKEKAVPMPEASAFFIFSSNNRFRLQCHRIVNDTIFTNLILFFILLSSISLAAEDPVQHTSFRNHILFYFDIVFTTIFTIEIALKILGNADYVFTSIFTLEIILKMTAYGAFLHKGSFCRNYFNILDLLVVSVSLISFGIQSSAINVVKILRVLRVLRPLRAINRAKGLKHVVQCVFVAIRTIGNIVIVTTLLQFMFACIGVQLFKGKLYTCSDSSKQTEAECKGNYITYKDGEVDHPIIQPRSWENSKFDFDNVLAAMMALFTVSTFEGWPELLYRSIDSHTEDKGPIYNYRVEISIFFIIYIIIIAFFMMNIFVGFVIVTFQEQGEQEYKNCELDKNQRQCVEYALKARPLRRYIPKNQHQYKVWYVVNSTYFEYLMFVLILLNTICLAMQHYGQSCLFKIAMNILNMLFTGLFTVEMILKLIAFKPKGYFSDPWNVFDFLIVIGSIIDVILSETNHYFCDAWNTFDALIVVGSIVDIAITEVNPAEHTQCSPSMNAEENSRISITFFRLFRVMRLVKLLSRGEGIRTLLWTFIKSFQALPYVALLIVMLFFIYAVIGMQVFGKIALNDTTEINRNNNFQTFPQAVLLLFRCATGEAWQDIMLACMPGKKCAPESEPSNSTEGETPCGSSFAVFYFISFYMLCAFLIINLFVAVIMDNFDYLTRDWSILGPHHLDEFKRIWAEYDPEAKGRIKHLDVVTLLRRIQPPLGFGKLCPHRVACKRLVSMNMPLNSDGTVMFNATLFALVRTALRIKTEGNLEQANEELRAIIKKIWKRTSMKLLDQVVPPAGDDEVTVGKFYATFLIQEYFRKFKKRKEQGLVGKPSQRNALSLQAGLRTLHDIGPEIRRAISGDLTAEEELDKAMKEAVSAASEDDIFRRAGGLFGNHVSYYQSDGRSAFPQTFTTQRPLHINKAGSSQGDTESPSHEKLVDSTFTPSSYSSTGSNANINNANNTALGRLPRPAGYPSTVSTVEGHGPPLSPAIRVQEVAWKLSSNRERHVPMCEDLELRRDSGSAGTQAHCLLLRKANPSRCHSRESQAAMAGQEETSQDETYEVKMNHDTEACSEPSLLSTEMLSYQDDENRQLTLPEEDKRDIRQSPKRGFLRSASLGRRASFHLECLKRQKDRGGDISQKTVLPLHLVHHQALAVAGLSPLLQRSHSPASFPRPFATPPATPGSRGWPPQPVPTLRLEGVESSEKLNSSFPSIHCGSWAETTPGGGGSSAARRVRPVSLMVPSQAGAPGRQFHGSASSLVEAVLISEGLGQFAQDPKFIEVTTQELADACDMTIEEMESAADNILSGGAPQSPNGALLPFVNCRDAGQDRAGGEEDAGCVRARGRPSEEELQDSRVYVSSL
Chain of 5-hydroxytryptamine receptor 2A (P28223 whole entry): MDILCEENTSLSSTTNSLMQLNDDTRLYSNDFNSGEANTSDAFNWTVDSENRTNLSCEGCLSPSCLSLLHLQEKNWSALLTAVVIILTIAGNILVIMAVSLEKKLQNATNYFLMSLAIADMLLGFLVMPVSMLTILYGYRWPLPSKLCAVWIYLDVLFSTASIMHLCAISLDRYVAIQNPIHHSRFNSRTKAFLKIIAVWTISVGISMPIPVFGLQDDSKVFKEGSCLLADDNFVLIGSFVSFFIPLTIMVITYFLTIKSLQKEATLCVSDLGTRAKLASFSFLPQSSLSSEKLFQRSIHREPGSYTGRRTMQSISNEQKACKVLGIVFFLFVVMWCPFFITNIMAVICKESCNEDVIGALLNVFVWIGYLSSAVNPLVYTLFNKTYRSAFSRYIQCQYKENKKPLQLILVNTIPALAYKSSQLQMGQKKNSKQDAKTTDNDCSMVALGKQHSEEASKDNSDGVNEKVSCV
Chain of Mitogen-activated protein kinase kinase kinase 7 (O43318 whole entry): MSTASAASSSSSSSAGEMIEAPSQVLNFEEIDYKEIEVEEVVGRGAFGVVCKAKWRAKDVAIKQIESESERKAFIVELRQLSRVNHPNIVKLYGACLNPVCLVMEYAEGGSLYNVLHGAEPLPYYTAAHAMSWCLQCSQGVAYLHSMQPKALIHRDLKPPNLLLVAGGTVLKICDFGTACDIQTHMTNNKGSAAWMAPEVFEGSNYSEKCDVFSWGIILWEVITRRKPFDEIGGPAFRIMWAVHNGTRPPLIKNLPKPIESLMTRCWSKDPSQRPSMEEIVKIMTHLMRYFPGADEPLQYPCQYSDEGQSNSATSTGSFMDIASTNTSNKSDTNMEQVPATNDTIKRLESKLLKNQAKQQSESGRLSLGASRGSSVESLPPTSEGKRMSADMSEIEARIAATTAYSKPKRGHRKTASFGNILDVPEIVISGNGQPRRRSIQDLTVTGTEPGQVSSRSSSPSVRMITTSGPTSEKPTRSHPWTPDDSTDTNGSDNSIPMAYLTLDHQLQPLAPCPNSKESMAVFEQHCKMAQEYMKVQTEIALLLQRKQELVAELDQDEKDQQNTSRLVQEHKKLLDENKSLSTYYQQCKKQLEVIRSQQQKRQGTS
Chain of Glycogen synthase kinase-3 beta (P49841 whole entry): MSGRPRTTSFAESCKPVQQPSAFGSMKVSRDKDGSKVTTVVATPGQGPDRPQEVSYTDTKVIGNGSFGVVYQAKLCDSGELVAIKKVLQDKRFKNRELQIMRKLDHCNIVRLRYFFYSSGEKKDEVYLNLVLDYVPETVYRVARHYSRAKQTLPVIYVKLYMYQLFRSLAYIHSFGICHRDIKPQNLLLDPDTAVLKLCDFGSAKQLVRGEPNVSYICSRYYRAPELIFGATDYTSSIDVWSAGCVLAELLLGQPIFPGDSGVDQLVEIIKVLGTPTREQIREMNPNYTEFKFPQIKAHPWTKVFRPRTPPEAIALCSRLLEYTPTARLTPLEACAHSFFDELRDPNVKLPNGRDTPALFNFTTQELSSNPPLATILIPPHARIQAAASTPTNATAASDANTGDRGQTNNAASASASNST

Compound: CC(C)(C)c1ccc(C(=O)Nc2cn3cc(-n4ccnc4)ccc3n2)cc1
- IC50 [1]: 0.158 µM
- IC50 [2]: > 20 µM
- IC50 [3]: > 20 µM
- IC50 [4]: > 20 µM
- IC50 [5]: > 10 µM
- IC50 [6]: > 10 µM
- IC50 [7]: > 10 µM
- IC50 [8]: > 10 µM
- IC50 [9]: > 10 µM
- IC50 [10]: > 20 µM
- IC50 [11]: > 10 µM
- IC50 [12]: > 10 µM
- IC50 [13]: > 10 µM
- IC50 [14]: > 20 µM

Compound: O=C(NC[C@@H]1[C@H]2CN(C(=O)OCc3cc(C(F)(F)F)cc(C(F)(F)F)c3)C[C@@H]12)c1ccc2[nH]nnc2c1 [BI 2545]
- % of inhibition [15]: 80%
- Ki [16]: 2.56 µM
- % of inhibition [17]: 63.7%
- % of inhibition [18]: 55%
- % of control [19]: 13%
- % of control [20]: 44%
- % of inhibition [21]: 66%
- % of inhibition [22]: 51.2%
- % of inhibition [23]: 61%
